Test results reported in patent US20240398775A1, “PHARMACEUTICAL COMPOSITION FOR USE IN TREATING COGNITIVE DECLINE OR FOR USE IN TREATING OVERWEIGHT OR OBESITY” (University of the Ryukyus, priority 2021, published 2024).

How the values were obtained:
[1] = tested on: GluA2 mRNA / (GluA1+GluA3+GluA4 mRNA); experiment: qRT-PCR of AMPAR/NMDAR subunits in hippocampal regions, Ca2+ permeability index; assay type: in vivo, mouse
Procedure: Hippocampal slices of 17 to 18 week old male C57BL/6J background mice (CD, HFD, and HFD with PER treatment) or 12 to 13 week old ob/ob mice (ob/ob, and ob/ob with PER treatment) were prepared as previously reported (56, 57). After preparing and collecting hippocampal slices, CA1, CA2, CA3, DG, and EC regions were separated from hippocampal slices using a dissection knife from […] background mice and ob/ob mice, respectively. The CA1, CA2, CA3, DG, and EC regions of mice were separated and immediately lysed in disposable homogenization tube BioMasher2 (trademark) (Nippi, Tokyo, Japan) using 0.5 mL of TRIzol RNA isolation reagent (Thermo Fisher Scientific, Wilmington, DE). Total RNA was individually extracted from each region according to the remaining protocol of the TRIzol RNA isolation reagent provided by the manufacturer (Thermo Fisher Scientific, Wilmington, DE). 1 μg of total RNA was reverse transcribed using PrimeScript RT Reagent Kit (Takara, Shiga, Japan). An aliquot of the obtained CDNA was diluted 1:10 and added to a master mix of TB Green Premix ExTaq (Takara, Shiga, Japan), and real-time PCR was performed using a 7500 Fast Real-Time PCR system (Applied Biosystems, Foster City, CA, USA) according to the manufacturer's instructions. The conditions for real-time PCR were as follows. 40 cycles of 95° C. for 30 seconds, then 95° C. for 5 seconds and 60° C. for 34 seconds. The fluorescence intensity was measured for each annealing step and the threshold cycle time was determined using 7500 software. In addition, relative expression levels of β-actin were normalized to respective controls (vehicle group). The relative expression level of the target gene in each sample was determined using a standard curve and further normalized to the expression level of β-actin of the same sample. The sequences of primers and probes for these genes are shown in Supplemental Table 2. The “ratio of GluA2 mRNA amount/(GluA1+GluA3+GluA4 mRNA amount” was used as a Ca^2+ permeability index.
GluA2 is edited at the Q/R site within the reentry M2 membrane loop region by adenosine deaminase (ADAR2), which acts on RNA type 2 involved in editing double-stranded RNA from adenosine (A) to inosine (I) (review, refer to 15, 16 and 17). Attempts were made to determine real-time quantitative reverse transcription polymerase chain reaction (qRT-PCR), subunit composition of AMPAR and NMDAR. Total RNA in hippocampal subregions (CA1, CA3, DG, EC) was separated, and quantitative analysis of mRNA of GluA1, GluA2, GluA3, and GluA4 for AMPAR, and GluN1, GluN2A, GluN2B, and GluN2C for NMDAR was performed by qRT-PCR. […] Based on the mRNA amount of each subunit, the ratio of GluA2 to other GluA subunits (FIG. 2B) was determined. The ratio was defined as a Ca^2+ permeability index.

[2] = tested on: Thy-1+-eYFP neuronal cells; experiment: Quantification of Thy1-eYFP neurons (CLARITY); assay type: in vivo, mouse; settings: HFD mice treated with PER, p<0.001, n=4
Excerpt: Coronal sections of mouse brains from Bregma-0.94 mm to Bregma-4.04 mm (5 mm wide, including the entire hippocampus from dorsal to ventral, medial to lateral) were fixed with 4% paraformaldehyde for 2 days, and then stained with the Golgi Cox staining system (FD Rapid GolgiStain™ Kit, MD 21041, USA). The impregnated tissues were cut into 100 μm sections and counterstained with crystal violet, and the total number of 15 μm spines on the apical dendrites of CA1 and DG and the percentage of morphologic spines (thin, stubby, mushroom) were examined using an Axio Observer Z1 (Carl Zeiss, Germany). Another set of paraformaldehyde-fixed 5 mm wide coronal sections of the brain, including the entire hippocampus, were processed using the passive CLARITY technique (PACT) (62) and examined through Lightsheet Z.1 (Carl Zeiss, Germany) using a 10× clear objective lens, and 3D images of Thy1-YFPH transgenic mice (the Jackson Laboratory, stock number: 003709, strain name: B6. Cg-Tg. (Thy1-YFP) 16Jrs/J) (63, 64), HFD-fed mice, and whole hippocampus of the HFD-fed mice with PER treatment. were acquired respectively. Maximum intensity projection images were acquired along the Z dimension, time dimension, and channel dimension to create an output image with the pixel containing the maximum value for all images in the stack at a particular pixel position. […]

[3] = tested on: dendritic arbors and spines of hippocampus; experiment: Golgi staining of hippocampus; assay type: in vivo, mouse; settings: HFD mice with PER
Excerpt: Coronal sections of mouse brains from Bregma-0.94 mm to Bregma-4.04 mm (5 mm wide, including the entire hippocampus from dorsal to ventral, medial to lateral) were fixed with 4% paraformaldehyde for 2 days, and then stained with the Golgi Cox staining system (FD Rapid GolgiStain™ Kit, MD 21041, USA). The impregnated tissues were cut into 100 μm sections and counterstained with crystal violet, and the total number of 15 μm spines on the apical dendrites of CA1 and DG and the percentage of morphologic spines (thin, stubby, mushroom) were examined using an Axio Observer Z1 (Carl Zeiss, Germany). Another set of paraformaldehyde-fixed 5 mm wide coronal sections of the brain, including the entire hippocampus, were processed using the passive CLARITY technique (PACT) (62) and examined through Lightsheet Z.1 (Carl Zeiss, Germany) using a 10× clear objective lens, and 3D images of Thy1-YFPH transgenic mice (the Jackson Laboratory, stock number: 003709, strain name: B6. Cg-Tg. (Thy1-YFP) 16Jrs/J) (63, 64), HFD-fed mice, and whole hippocampus of the HFD-fed mice with PER treatment. were acquired respectively. Maximum intensity projection images were acquired along the Z dimension, time dimension, and channel dimension to create an output image with the pixel containing the maximum value for all images in the stack at a particular pixel position. With the Z-stack function, a series of XY images at different focus positions can be acquired to create Z-stack. In this manner, a 3D dataset of 400 μm×400 μm was obtained from the specimens, dorsal to lateral and medial to lateral for each of CA1, CA3, and DG.

Aβ42/Aβ40 = Aβ42/Aβ40 ratio of neurosphere culture supernatant by EIA; assay type: cell-based; settings: neurospheres from NL-G-F(−/−) mouse embryonic hippocampus, perampanel 50 μM, day 2 and day 4 of culture
Excerpt: Biomarkers of Alzheimer's dementia include the Aβ42/Aβ40 ratio of cerebrospinal fluid (CSF) and plasma levels, phosphorylated tau (P-tau) in threonines 181 and 217, and neurofilament lite (NfL) (Curr Opin Neurol 2021 1 266-274). The Aβ42/Aβ40 ratio is considered to be able to predict Aβ accumulation in PET (Doecke J D et al., Neurology 2020). Hippocampus on 17 to 19 days of NL-G-F(−/−) mouse embryonic life was taken out and cultured by a Neurosphere method by Brewer G J et al. (Nat Protoc 2007 2, 1490-1498), and a supernatant was measured by an EIA method using this culture system. The change in the Aβ42/Aβ40 ratio by the perampanel (50 μM/methyl cellulose 4 μL) was analyzed. In 4 μL of a 0.5 w/v % aqueous solution of methyl cellulose 400, 5×10^4 spheres smaller than 50 μm in diameter were cultured in 50 ml Falcon Flask coated with poly-D-lysine/laminin, and Aβ42 and Aβ40 of the supernatant were measured by EIA method on the second day (FIG. 29A) and the fourth day (FIG. 29B) of culture. The solvent was administered 12 hours after seeding.

[4] = HFD-fed mice with PER, ratio GluA2 mRNA/(GluA1+GluA3+GluA4 mRNA), N = 5

`N#Cc1ccccc1-c1cc(-c2ccccn2)cn(-c2ccccc2)c1=O` [PER, 3-(2-cyanophenyl)-5-(2-pyridyl)-1-phenyl-1,2-dihydropyridine-2-one] was tested, and the “Ca2+-permeability index CA1” value [1, 4] was 0.29 ± 0.11, the “Ca2+-permeability index CA3” value [1, 4] was 0.26 ± 0.10 and the “Ca2+-permeability index DG” value [1, 4] was 0.22 ± 0.06. The “Ca2+-permeability index EC” value [1, 4] was 0.30 ± 0.05, the “Ca2+ permeability index via CA1, CA3, DG and EC” value ([1]; HFD-fed mice, PER administration, N=5) was “returned to CD-fed mouse levels” and the “GluA2 mRNA expression in CA1” value ([1]; mice fed HFD with PER, qRT-PCR, p<0.05) was “significant increase”. For the same compound, the “number of Thy-1+-eYFP neuronal cells in CA3” value [2] was “significantly restored”, the “Golgi staining positive cells in DG” value [3] was “restored” and the “integrity of dendritic arbors in CA1 (Golgi staining)” value [3] was “restored”. For the same compound, the “spine maturation in DG” value [3] was “immature spines became mature” and the “Aβ42/Aβ40 ratio of the culture supernatant” value (Aβ42/Aβ40) was “significantly increased”.
